Experimental data as given in patent US8150136B2, “Image based quantitation of molecular translocation” (Amnis Corporation, priority 2005, dated 2012).

Tested on: NF-κB nuclear translocation in THP-1 cells
Assay: LPS-induced nuclear translocation of NF-κB in THP-1 cells, multispectral imaging flow cytometry (ImageStream), NF-κB/7-AAD Similarity
Format: cell-based, human
Procedure: Untreated (a) and LPS treated (b) THP-1 cells were prepared as described in FIG. 4 and imaged in flow using the ImageStream 100 platform. […] Each gated population has an associated image gallery that can be visually inspected. The image galleries here display the NF-κB image adjacent to a composite image (green NF-κB/red 7-ADD) for each object within a given population.
In order to quantitate the extent of NF-κB nuclear translocation in A-549 cells treated with TNF-α/IL-β, the degree of pixel intensity between the NF-κB and nuclear images of cell within a masked region of interest was analyzed. The NF-κB image of a cell with a high degree of translocation will look qualitatively similar to the nuclear image of that cell, resulting in a high degree of correlation between the two images. In contrast, the NF-κB image of a cell without any translocation will have little signal in the nuclear space, resulting in an inverse correlation with the nuclear image. […] Two features were calculated, the correlation coefficient (ρ) and, in this case, similarity is calculated as a logarithmic transformation of ρ, which features are represented by the following formula, respectively: ρ(X,Y)=Cov(X,Y)/(σX σY) Similarity=ln(1+ρ)/(1−ρ) As set forth herein, ρ measures the degree to which the spatial distribution of intensities over two separate images is correlated, with a range from −1 (inverse correlation) to +1 (complete correlation). Here, similarity values range from −∞ to +∞, allowing standard statistical comparisons (means and standard deviations) between groups to be made. Histogram overlays of NF-κB/7-AAD correlation and similarity allows the differentiation of untreated (green) A-549 cells from TNF-α/IL-1β treated (red) A-549 cells. As described herein, the fidelity of these classifiers can be validated by inspection of the image galleries of the cells. Mask Determination
By way of background and […], NF-κB resides predominantly in the cytoplasm in resting cells. Activating treatments (e.g., IL-1β/TNF-α or LPS) induce NF-κB translocation into the nucleus in responsive cell types. Thus, the ratio of nuclear to cytoplasmic NF-κB increases with LPS treatment. Similar to the A-549 cells, NF-κB is translocated from the cytoplasm to the nucleus when the non-adherent human monocyte cell line, THP-1, is exposed to lipopolysaccharide (LPS). […] A nuclear and NF-κB pixel signal correlation analysis CCF was used to quantitate the difference between untranslocated NF-κB and NF-κB translocated to the cell nucleus. The CCF distinguished location-specific (nuclear and cytoplasmic) quantitation of NF-κB to distinguish LPS-treated from untreated THP-1 cells. Thus, the methods of the present disclosure may also be used with non-adherent cells and cell lines.
Human monocyte cell line THP-1, obtained from ATCC (Rockville, Md.), were maintained in RPMI 1640 (Gibco, Grand Island, N.Y.) containing 5% fetal bovine serum, 1 mM sodium pyruvate (Mediatech, Herndon, Va.), 100 μM nonessential amino acids, 100 U/ml penicillin, 100 μg/ml streptomycin, and 2 mM L-glutamine (BioWhittaker, Walkersville, Md.) in 5% CO2 atmosphere at 37° C. The density of exponentially growing cells was less than 3×10^5 cells per ml at the time of all treatments. To induce NF-κB translocation into the nucleus from the cytoplasm, cells were treated for 1 hr with LPS.
The following is the experimental procedure for LPS-induced Nuclear Translocation of NF-κB in THP-1 cells. […]

Substance: Lipopolysaccharide [LPS]
- NF-κB/7-AAD Similarity value (median similarity value) of translocated cells (LPS treated THP-1 cells, 'High Similarity' (translocated) gated population, untreated: 2.98 +/−0.35): 3.35 +/−0.48
- NF-κB/7-AAD Similarity value of untranslocated cells (LPS treated THP-1 cells, 'Low Similarity' (untranslocated) gated population, untreated: −1.36 +/−0.84): −0.76 +/−0.64
- percentage of Medium Similarity cells (LPS treated THP-1 cells, diffuse NF-κB staining pattern, untreated 3.6%): 27.6%
- percentage of NF-κB-translocated cells (LPS treated THP-1 cells, untreated 0.71%): 44.6%
- nuclear localization of NF-κB by CCF, treated versus untreated cells (THP-1 cells, LPS-treated vs untreated): a quantifiable difference in the nuclear localization NF-κB is demonstrated
